# According to ChEMBL document CHEMBL1201862, “PubChem BioAssay data set” (2004):
#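 Grown in 96-well plates, cells were treated for 48 hours with each compound at five concentrations. Insufficient inhibition: endpoint recorded as highest concentration tested. The concentration for 50% growth inhibition is given as GI50.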 Activity calls are given as the source filed them. Rule as the data show it: active = GI50 up to about 1.1 µM and inactive = higher.
# Legend:
# Experiment in all cases: DTP human tumour cell line panel, 48 h
# TK-10 = test system: TK-10
# DLD-1 = test system: DLD-1
# CCRF-CEM = test system: CCRF-CEM
# LOX IMVI = test system: LOX IMVI
# SF-268 = test system: SF-268
# A498 = test system: A498
# MDA-N = test system: MDA-N
# UACC-62 = test system: UACC-62
# DU-145 = test system: DU-145
# MOLT-4 = test system: MOLT-4
# HT-29 = test system: HT-29
# OVCAR-8 = test system: OVCAR-8
# BT-549 = test system: BT-549
# PC-3 = test system: PC-3
# U-251 = test system: U-251
# HOP-62 = test system: HOP-62
# MDA-MB-231 = test system: MDA-MB-231
# SNB-75 = test system: SNB-75
# SN12C = test system: SN12C
# OVCAR-5 = test system: OVCAR-5
Structure (SMILES),GI50 (TK-10),GI50 (DLD-1),GI50 (CCRF-CEM),GI50 (LOX IMVI),GI50 (SF-268),GI50 (A498),GI50 (MDA-N),GI50 (UACC-62),GI50 (DU-145),GI50 (MOLT-4),GI50 (HT-29),GI50 (OVCAR-8),GI50 (BT-549),GI50 (PC-3),GI50 (U-251),GI50 (HOP-62),GI50 (MDA-MB-231),GI50 (SNB-75),GI50 (SN12C),GI50 (OVCAR-5)
CC[C@@]1(O)C(=O)OCc2c1cc1n(c2=O)Cc2cc3c(N)cccc3nc2-1 [9-AMINOCAMPTOTHECIN],1.63 µM (inactive),0.566 µM (active),< 0.0369 µM (active),< 0.01 µM (active),< 0.01 µM (active),0.0794 µM (active),0.229 µM (active),< 0.0102 µM (active),< 0.01 µM (active),< 0.01 µM (active),0.0632 µM (active),0.0148 µM (active),0.0684 µM (active),0.0728 µM (active),0.0108 µM (active),< 0.01 µM (active),0.272 µM (active),< 0.0115 µM (active),< 0.01 µM (active),0.128 µM (active)
COc1ccc2c(-c3cc4ccccc4o3)cc(=O)oc2c1,21.7 µM (inactive),> 100 µM (inactive),> 100 µM (inactive),60.7 µM (inactive),25.3 µM (inactive),31.3 µM (inactive),> 76.6 µM (inactive),67.5 µM (inactive),> 74.8 µM (inactive),> 100 µM (inactive),> 78.2 µM (inactive),29.9 µM (inactive),34.1 µM (inactive),73.5 µM (inactive),24.3 µM (inactive),13.3 µM (inactive),47.8 µM (inactive),8.17 µM (inactive),68.9 µM (inactive),> 42.2 µM (inactive)
O=[N+]([O-])c1ccccc1/C=N/C12CC3CC(CC(C3)C1)C2,> 100 µM (inactive),36.4 µM (inactive),30.9 µM (inactive),47.4 µM (inactive),> 100 µM (inactive),> 100 µM (inactive),–,> 100 µM (inactive),–,34 µM (inactive),34.3 µM (inactive),75 µM (inactive),–,–,> 100 µM (inactive),99.5 µM (inactive),–,65 µM (inactive),> 100 µM (inactive),> 100 µM (inactive)
CC(C)c1c2[nH]c3ccccc3c2c(C(C)C)c2[nH]c3ccccc3c12,> 100 µM (inactive),> 78.7 µM (inactive),> 52.5 µM (inactive),35.5 µM (inactive),> 100 µM (inactive),> 100 µM (inactive),–,> 100 µM (inactive),–,> 63.2 µM (inactive),10.9 µM (inactive),> 100 µM (inactive),–,–,> 100 µM (inactive),> 100 µM (inactive),–,> 89.7 µM (inactive),35.6 µM (inactive),47.5 µM (inactive)
Nc1nc2c3c(ncn3CC(O)CO2)n1 (stereo not given),> 100 µM (inactive),> 100 µM (inactive),> 100 µM (inactive),> 100 µM (inactive),> 100 µM (inactive),> 100 µM (inactive),–,> 100 µM (inactive),–,> 100 µM (inactive),7.6 µM (inactive),> 100 µM (inactive),–,–,> 100 µM (inactive),> 100 µM (inactive),–,10.8 µM (inactive),> 100 µM (inactive),> 100 µM (inactive)
CCOC(=N)/C(=C1\OC(=N)C(c2ccc(Cl)cc2)=C1O)c1ccc(Cl)cc1,28.1 µM (inactive),15.2 µM (inactive),18.2 µM (inactive),13.9 µM (inactive),14.5 µM (inactive),17.8 µM (inactive),–,15.5 µM (inactive),–,17.9 µM (inactive),23.2 µM (inactive),15.4 µM (inactive),–,–,16.8 µM (inactive),22.5 µM (inactive),–,18.8 µM (inactive),14.8 µM (inactive),19.4 µM (inactive)
O=C(N/C(=C\c1ccc(/C=C(\NC(=O)c2ccccc2)c2nc3c(O)nc(S)nc3[nH]2)cc1)c1nc2c(O)nc(S)nc2[nH]1)c1ccccc1,> 100 µM (inactive),64.9 µM (inactive),26.2 µM (inactive),38 µM (inactive),57.9 µM (inactive),40.6 µM (inactive),–,34.3 µM (inactive),–,43 µM (inactive),75 µM (inactive),74.6 µM (inactive),–,–,> 100 µM (inactive),> 100 µM (inactive),–,26.4 µM (inactive),> 100 µM (inactive),> 100 µM (inactive)
O=C(C[n+]1ccccc1)N/N=C(/CCC(=O)N(Cc1ccccc1)Cc1ccccc1)CC(=O)c1ccccc1,> 100 µM (inactive),> 100 µM (inactive),> 100 µM (inactive),> 100 µM (inactive),> 100 µM (inactive),> 100 µM (inactive),–,> 100 µM (inactive),–,> 100 µM (inactive),> 100 µM (inactive),> 100 µM (inactive),–,–,> 100 µM (inactive),> 100 µM (inactive),–,> 100 µM (inactive),> 100 µM (inactive),> 100 µM (inactive)
